Measured values published in paper PMC11728000, “Antitumor Activity and Multi-Target Mechanism of Phenolic Schiff Bases Bearing Methanesulfonamide Fragments: Cell Cycle Analysis and a Molecular Modeling Study” (International Journal of Molecular Sciences, 2024).
Read-outs that look alike come from different tables or passages of the source.

Experiments:
HCT-15 = assay: NCI anticancer screening (SRB), Colon Cancer subpanel; format: cell-based, human; conditions: for GI%: 10.0 µM in one dose
NCI/ADR-RES = assay: NCI anticancer screening (SRB), Ovarian Cancer subpanel; format: cell-based, human; conditions: for GI%: 10.0 µM in one dose
UO-31 = assay: NCI anticancer screening (SRB), Renal Cancer subpanel; format: cell-based, human; conditions: for GI%: 10.0 µM in one dose
RPMI-8226 = assay: NCI anticancer screening (SRB), Leukemia subpanel; format: cell-based, human
NCI-H322M = assay: NCI anticancer screening (SRB), Non-Small Cell Lung Cancer subpanel; format: cell-based, human
NCI-H522 = assay: as above; format: cell-based, human
COLO 205 = assay: NCI anticancer screening (SRB), Colon Cancer subpanel; format: cell-based, human
HT29 = assay: as above; format: cell-based, human
SNB-75 = assay: NCI anticancer screening (SRB), CNS Cancer subpanel; format: cell-based, human
UACC-257 = assay: NCI anticancer screening (SRB), Melanoma subpanel; format: cell-based, human
[1] = system: Leukemia subpanel tumor cell lines; assay: NCI anticancer screening, subpanel summary; format: cell-based; conditions: Leukemia, mean over subpanel cell lines
[2] = system: NSC Lung Cancer subpanel tumor cell lines; assay: NCI anticancer screening, subpanel summary; format: cell-based; conditions: NSC Lung Cancer, mean over subpanel cell lines
[3] = system: Colon Cancer subpanel tumor cell lines; assay: NCI anticancer screening, subpanel summary; format: cell-based; conditions: mean over subpanel cell lines
[4] = system: CNS Cancer subpanel tumor cell lines; assay: NCI anticancer screening, subpanel summary; format: cell-based; conditions: mean over subpanel cell lines
[5] = system: Melanoma subpanel tumor cell lines; assay: NCI anticancer screening, subpanel summary; format: cell-based; conditions: mean over subpanel cell lines
[6] = system: Ovarian Cancer subpanel tumor cell lines; assay: NCI anticancer screening, subpanel summary; format: cell-based; conditions: Ovarian Cancer, mean over subpanel cell lines
[7] = system: Renal Cancer subpanel tumor cell lines; assay: NCI anticancer screening, subpanel summary; format: cell-based; conditions: mean over subpanel cell lines
[8] = system: Prostate Cancer subpanel tumor cell lines; assay: NCI anticancer screening, subpanel summary; format: cell-based; conditions: mean over subpanel cell lines
[9] = system: Breast Cancer subpanel tumor cell lines; assay: NCI anticancer screening, subpanel summary; format: cell-based; conditions: Breast Cancer, mean over subpanel cell lines
MCF-7 cells [10] = assay: Annexin V-FITC/PI apoptosis assay; format: cell-based, human; conditions: 24 h
MCF-7 cells [11] = assay: Cell cycle analysis (PI flow cytometry); format: cell-based, human; conditions: 10 μM, 24 h
Experimental: Apoptosis is the primary mechanism by which potent chemotherapeutic agents destroy cancer cells. […] Flow cytometry measured cell growth in the G0-G1, S, and G2/M cell cycle phases.
Using the MCF-7 cell line, the cell cycle analysis was carried out like our previous investigation. A FACSCalibur flow cytometer was used to analyze the cells after they had been stained with DNA fluorochrome PI (Supplementary Materials). […]
photomultiplier voltage and for compensation setting adjustment to eliminate spectral overlap between the FL1 and the FL2 signals.
6. Cell cycle analysis
Breast carcinoma (MCF-7) cell was seeded at 2 × 10^5 cells/well density and incubated for 24 h in six-well plates. Foetal bovine serum (10%) was added, and the cells were incubated at 37 °C in an atmosphere of 5% CO2. The medium was replaced with 1% (v/v) DMSO containing 10.0 μM of […]
with 70% ethanol, rinsed with phosphate-buffered saline, and then stained with the DNA fluorochrome propidium iodide (PI) for 15 min at 37 °C. Then, samples were analyzed by flow cytometry using a FACSCalibur (Becton Dickinson). The cell cycle distributions were calculated using CellQuest software (Becton Dickinson). […]

[12] = system: 59 human cancer cell lines; assay: NCI anticancer screening, full panel summary
[13] = Homo sapiens, five concentrations
[14] = Homo sapiens, read-out: LC50, subpanel average

CS(=O)(=O)Nc1ccc(C(=O)NN=Cc2ccccc2O)cc1 [Compound 7]
GI% (HCT-15): 67% | GI% (NCI/ADR-RES): 41% | GI% (UO-31): 64%

CCN(CC)c1ccc(C=NNC(=O)c2ccc(NS(C)(=O)=O)cc2)c(O)c1 [Compound 8]
GI% (RPMI-8226; 10.0 µM in one dose): 84% | GI50 (RPMI-8226; Homo sapiens, PRMI-8226, five concentrations): 2.72 µM | GI% (NCI-H322M; 10.0 µM in one dose): 75% | GI50 (NCI-H322M; [13]): 0.258 µM | GI% (NCI-H522; 10.0 µM in one dose): 88% | GI50 (NCI-H522; [13]): 0.36 µM | GI% (COLO 205; 10.0 µM in one dose): 94% | GI50 (COLO 205; [13]): 0.349 µM | GI% (HCT-15): 80% | GI50 (HCT-15; [13]): 0.358 µM | GI% (HT29; 10.0 µM in one dose): 73% | GI50 (HT29; Homo sapiens, HT-29, five concentrations): 0.495 µM | GI% (SNB-75; 10.0 µM in one dose): 52% | GI50 (SNB-75; [13]): 0.519 µM | GI% (UACC-257; 10.0 µM in one dose): > 100% | GI50 (UACC-257; [13]): 0.463 µM | GI% (NCI/ADR-RES): 63% | GI50 (NCI/ADR-RES; [13]): 2.58 µM | GI% (UO-31): 87% | GI50 (UO-31; [13]): 0.346 µM | GI50 ([1]; Homo sapiens): 0.7 µM | CC50 [1, 14]: > 100 µM | TGI, subpanel average [1]: 79.88 µM | GI50 ([2]; Homo sapiens): 0.622 µM | CC50 [2, 14]: 94.9 µM | TGI, subpanel average [2]: 22.08 µM | GI50 ([3]; Homo sapiens): 0.4 µM | LC50 (NCI-60 lethal concentration, subpanel average) ([3]; Homo sapiens): 80.1 µM | TGI, subpanel average [3]: 30.53 µM | GI50 ([4]; Homo sapiens): 0.451 µM | CC50 [4, 14]: 86.6 µM | TGI, subpanel average [4]: 14.14 µM | GI50 ([5]; Homo sapiens): 0.563 µM | CC50 [5, 14]: 93.6 µM | TGI, subpanel average [5]: 21.64 µM | GI50 ([6]; Homo sapiens): 1.03 µM | CC50 [6, 14]: 94.9 µM | GI50 [6]: 1.03 µM | TGI, subpanel average [6]: 52.90 µM | GI50 ([7]; Homo sapiens): 0.826 µM | CC50 [7, 14]: 80.6 µM | TGI, subpanel average [7]: 23.37 µM | GI50 ([8]; Homo sapiens): 0.527 µM | CC50 [8, 14]: 98 µM | TGI, subpanel average [8]: 60.80 µM | TGI, subpanel average [9]: 15.22 µM | GI50 ([9]; Homo sapiens): 0.599 µM | CC50 [9, 14]: 99.9 µM | Necrosis (MCF-7 cells [10]): 6.08% | Total Apoptosis (MCF-7 cells [10]; annexin V-FITC/PI): 38.16% | Early Apoptosis (MCF-7 cells [10]; lower-right quadrant): 22.49% | Late Apoptosis (MCF-7 cells [10]; upper-right quadrant): 9.59% | %G0–G1 (MCF-7 cells [11]): 51.94% | %G2-M (MCF-7 cells [11]): 14.64% | %S (MCF-7 cells [11]): 33.42% | Comment (cell cycle arrest phase) (MCF-7 cells [11]): Growth arrest@ S | GI50 ([12]; Homo sapiens, read-out: GI50 MG-MID): 0.501 µM | GI50 ([12]; Homo sapiens, read-out: GI50 range over the cell lines): 0.141 to 2.72 µM | CC50 ([12]; Homo sapiens, read-out: LC50 MG-MID): > 100 µM | TGI MG-MID ([12]; full panel mean-graph midpoint): 46.8 µM | PCE (positive cytotoxic effect) ([12]; ratio of cell lines with growth inhibition > 10% to total cell lines, 10 µM single dose): 59/59
